Results from patent US8268827B2, “Pyridazinone derivatives as PARP inhibitors” (Istituto di Ricerche di Biologia Molecolare P. Angeletti …, priority 2007, dated 2012).
Where a name gives a salt, the structure may show the parent alone.

Legend:
[1] = target: T1, PARP-1 (Homo sapiens, UniProt P09874); assay: PARP-1 SPA assay; format: biochemical
T1 construct: purchased Trevigen 4668-500-01
Protocol: Assay buffer: 100 mM Tris pH 8, 4 mM MgCl2, 4 mM Spermine, 200 mM KCl, 0.04% Nonidet P-40.
Nicotinamide-adenine dinucleotide (NAD)/DNA Mix: [^3H-NAD] (250 uCi/ml, 0.4 ul, Perkin-Elmer NET-443H), NAD (1.5 mM, 0.05 ul, SIGMA N-1511), Biotinylated-NAD (250 uM, 0.03 ul, Trevigen 4670-500-01), Activated calf thymus (1 mg/ml, 0.05 ul, Amersham Biosciences 27-4575), H2O (to 10 ul).
Developing Mix: Streptavidin SPA beads (5 mg/ml, Amersham Biosciences RPNQ 0007) dissolved in 500 mM EDTA.
The reaction is performed in 96-well microplate with a final volume of 50 uL/well. Add 5 ul 5% DMSO/compound solution, add enzyme mix (35 ul), start the reaction by adding NAD/DNA mix (10 uL) and incubate for 2 hrs at RT. Stop the reaction by adding developing mix (25 ul) and incubate 15 min at RT. Measure using a Packard TOP COUNT instrument.

[2] = test system: BRCA-1 silenced HeLa cells (HeLa shBRCA1-GFP); assay: Proliferation assay in BRCA-1 silenced HeLa cells; format: cell-based; conditions: Homo sapiens; BRCA1 silenced HeLa cells, 168 hours; read-out: CC50 in the BRCA1 silenced HeLa cells
How it was run: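 HeLa cells with lentiviral shRNA BRCA1 knockdown (>80%), compared with control-vector HeLa, seeded at 300 cells/well. Compound exposure lasted 168 h at 37° C. Viability was read as resazurin-to-resorufin fluorescence (ex 550/em 590 nm).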

T1 sequence (P09874 whole entry): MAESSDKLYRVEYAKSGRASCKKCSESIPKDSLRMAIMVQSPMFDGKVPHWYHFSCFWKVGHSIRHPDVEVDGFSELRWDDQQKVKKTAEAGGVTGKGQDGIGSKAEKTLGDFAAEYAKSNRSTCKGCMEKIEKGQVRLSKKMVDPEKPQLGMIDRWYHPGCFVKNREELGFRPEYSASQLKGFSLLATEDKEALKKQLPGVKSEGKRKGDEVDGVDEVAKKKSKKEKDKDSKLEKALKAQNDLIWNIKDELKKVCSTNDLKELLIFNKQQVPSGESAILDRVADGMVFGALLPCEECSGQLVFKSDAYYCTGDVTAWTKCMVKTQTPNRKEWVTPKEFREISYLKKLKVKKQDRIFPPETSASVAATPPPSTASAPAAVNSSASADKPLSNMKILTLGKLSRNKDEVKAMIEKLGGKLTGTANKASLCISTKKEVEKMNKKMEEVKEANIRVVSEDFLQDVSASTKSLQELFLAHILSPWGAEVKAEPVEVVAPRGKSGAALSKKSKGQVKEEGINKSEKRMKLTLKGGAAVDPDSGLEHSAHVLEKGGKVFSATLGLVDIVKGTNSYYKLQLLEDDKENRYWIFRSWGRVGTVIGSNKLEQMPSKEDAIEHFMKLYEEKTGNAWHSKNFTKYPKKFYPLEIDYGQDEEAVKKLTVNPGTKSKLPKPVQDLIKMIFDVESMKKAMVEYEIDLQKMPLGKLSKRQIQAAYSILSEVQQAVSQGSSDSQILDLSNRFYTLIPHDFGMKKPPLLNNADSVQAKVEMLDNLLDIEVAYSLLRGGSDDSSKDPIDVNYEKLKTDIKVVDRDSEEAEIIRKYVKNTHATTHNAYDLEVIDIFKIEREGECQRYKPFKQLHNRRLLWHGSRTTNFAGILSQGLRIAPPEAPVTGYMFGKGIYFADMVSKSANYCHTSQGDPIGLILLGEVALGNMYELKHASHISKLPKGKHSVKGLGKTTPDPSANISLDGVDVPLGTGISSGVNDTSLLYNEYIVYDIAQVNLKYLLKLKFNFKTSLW

SMILES | IC50 [1] [nM] | CC50 [2] [nM]
C[C@H]1CN(C(=O)c2cc(Cc3cc(C(F)(F)F)c(=O)[nH]n3)ccc2F)CC(=O)N1C1CCCC1 [Example 152, 6-(3-{[(3S)-4-cyclopentyl-3-methyl-5-oxopiperazin-1-yl]carbonyl}-4-fluorobenzyl)-4-(trifluoromethyl)pyridazin-3(2H)-one] | 5 to 25 | < 5000
Cc1c(Cc2ccc(F)c(C(=O)N3CC(=O)N(c4ccccc4)C(C)C3)c2)n[nH]c(=O)c1C (racemic) [Example 78 (LL4), 3-[4-Fluoro-3-(3-methyl-5-oxo-4-phenyl-piperazine-1-carbonyl)-benzyl]-4,5-dimethyl-6-oxo-1,6-dihydro-pyridazin-1-ium trifluoroacetate] | < 5 | < 50
CCN1CCN(C(=O)c2cc(Cc3n[nH]c(=O)c(C(F)(F)F)c3C)ccc2F)CC1=O [Example 143, 6-{3-[(4-Ethyl-3-oxopiperazin-1-yl)carbonyl]-4-fluorobenzyl}-5-methyl-4-(trifluoromethyl)pyridazin-3(2H)-one] | 5 to 25 | –
Cc1c(Cc2ccc(F)c(C(=O)N3CCN(c4ccccn4)C(=O)C3)c2)n[nH]c(=O)c1C [Example 31, 3-{4-Fluoro-3-[(3-oxo-4-pyridin-2-ylpiperazin-1-yl)carbonyl]benzyl}-4,5-dimethyl-6-oxo-1,6-dihydropyridazin-1-ium trifluoroacetate] | 5 to 25 | < 5000
CCc1c(Cc2ccc(F)c(C(=O)N3CCN(C4CCCCC4)C(=O)C3)c2)n[nH]c(=O)c1C(F)(F)F [Example 39, 6-{3-[(4-Cyclohexyl-3-oxopiperazin-1-yl)carbonyl]-4-fluorobenzyl}-5-ethyl-4-(trifluoromethyl)pyridazin-3(2H)-one trifluoroacetate] | < 5 | < 50
Cc1c(Cc2ccc(F)c(C(=O)N3CCN(c4ccc(F)cc4)C(=O)C3)c2)n[nH]c(=O)c1C [Example 40, 6-(4-Fluoro-3-{[4-(4-fluorophenyl)-3-oxopiperazin-1-yl]carbonyl}benzyl)-4,5-dimethyl-3-oxo-2,3-dihydropyridazin-1-ium trifluoroacetate] | 5 to 25 | 50 to 500
Cc1c(Cc2ccc(F)c(C(=O)N3CCN(C4CCOCC4)C(=O)C3)c2)n[nH]c(=O)c1C(F)(F)F [Example 146, 3-(4-Fluoro-3-{[3-oxo-4-(tetrahydro-2H-pyran-4-yl)piperazin-1-yl]carbonyl}benzyl)-4-methyl-6-oxo-5-(trifluoromethyl)-1,6-dihydropyridazin-1-ium trifluoroacetate] | 5 to 25 | < 50
Cc1c(Cc2ccc(F)c(C(=O)N3CC(=O)N(c4ccccc4)C(C)(C)C3)c2)n[nH]c(=O)c1C [Example 77, 6-{3-[(3,3-Dimethyl-5-oxo-4-phenylpiperazin-1-yl)carbonyl]-4-fluorobenzyl}-4,5-dimethylpyridazin-3(2H)-one] | < 5 | < 50
O=C(c1cc(Cc2cc(C(F)(F)C(F)(F)F)c(=O)[nH]n2)ccc1F)N1CCN(C2CCCC2)C(=O)C1 [Example 81, 6-{3-[(4-Cyclopentyl-3-oxopiperazin-1-yl)carbonyl]-4-fluorobenzyl}-4-(pentafluoroethyl)pyridazin-3(2H)-one] | 5 to 25 | 50 to 500
Cc1c(Cc2ccc(F)c(C(=O)N3C[C@@H]4C[C@H]3C(=O)N4c3ccccc3)c2)n[nH]c(=O)c1C [Example 41, (1S,4S)-5-{5-[(4,5-Dimethyl-6-oxo-1,6-dihydropyridazin-3-yl)methyl]-2-fluorobenzoyl}-2-phenyl-2,5-diazabicyclo[2.2.1]heptan-3-one trifluoroacetate] | 25 to 150 | –
Cc1c(Cc2ccc(F)c(C(=O)N3CCN(C(c4ccccc4)C(F)F)C(=O)C3)c2)n[nH]c(=O)c1C (stereo not drawn) [Example 46, 6-(3-{[4-(2,2-Difluoro-1-phenylethyl)-3-oxopiperazin-1-yl]carbonyl}-4-fluorobenzyl)-4,5-dimethyl-3-oxo-2,3-dihydropyridazin-1-ium trifluoroacetate] | – | < 50
Cc1c(Cc2ccc(F)c(C(=O)N3CCN(C4CCCc5ccccc54)C(=O)C3)c2)n[nH]c(=O)c1C (stereo not drawn) [Example 99, 6-(4-fluoro-3-{[3-oxo-4-(1,2,3,4-tetrahydronaphthalen-1-yl)piperazin-1-yl]carbonyl}benzyl)-4,5-dimethyl-3-oxo-2,3-dihydropyridazin-1-ium trifluoroacetate] | – | < 50
Cc1c(Cc2ccc(F)c(C(=O)N3CCN(c4cc(Cl)cc(Cl)c4)C(=O)C3)c2)n[nH]c(=O)c1C [Example 42, 3-(3-{[4-(3,5-Dichlorophenyl)-3-oxopiperazin-1-yl]carbonyl}-4-fluorobenzyl)-4,5-dimethyl-6-oxo-1,6-dihydropyridazin-1-ium trifluoroacetate] | – | < 50

Continued, in another order:

IC50 [1] [nM] | SMILES | CC50 [2] [nM]
5 to 25 | CC[C@H]1CN(C(=O)c2cc(Cc3n[nH]c(=O)c(C)c3C)ccc2F)CC(=O)N1C1CCC1 [Example 181, 6-(3-{[(3S)-4-Cyclobutyl-3-ethyl-5-oxopiperazin-1-yl]carbonyl}-4-fluorobenzyl)-4,5-dimethylpyridazin-3(2H)-one] | < 5000
5 to 25 | Cc1c(Cc2ccc(F)c(C(=O)N3CC(=O)N(C4CCCC4)[C@H](C)C3)c2)n[nH]c(=O)c1C [Example 115, 6-(3-{[(3R)-4-cyclopentyl-3-methyl-5-oxopiperazin-1-yl]carbonyl}-4-fluorobenzyl)-4,5-dimethylpyridazin-3(2H)-one] | < 5000
25 to 150 | Cc1c(Cc2ccc(F)c(C(=O)N3CC(=O)N(C4CCCCC4)CC3(C)C)c2)n[nH]c(=O)c1C [Example 93, 3-{3-[(4-Cyclohexyl-2,2-dimethyl-5-oxopiperazin-1-yl)carbonyl]-4-fluorobenzyl}-4,5-dimethyl-6-oxo-1,6-dihydropyridazin-1-ium trifluoroacetate] | –
5 to 25 | Cc1c(Cc2ccc(F)c(C(=O)N3CCN(C4CCC(F)(F)CC4)C(=O)C3)c2)n[nH]c(=O)c1C [Example 48, 6-(3-{[4-(4,4-Difluorocyclohexyl)-3-oxopiperazin-1-yl]carbonyl}-4-fluorobenzyl)-4,5-dimethyl-3-oxo-2,3-dihydropyridazin-1-ium trifluoroacetate] | 50 to 500
< 5 | Cc1c(Cc2ccc(F)c(C(=O)N3CC(=O)N4CCCC[C@@H]4C3)c2)n[nH]c(=O)c1C [Example 90, (9aR)-2-{5-[(4,5-Dimethyl-6-oxo-1,6-dihydropyridazin-3-yl)methyl]-2-fluorobenzoyl}octahydro-4H-pyrido[1,2-a]pyrazin-4-one trifluoroacetate] | < 50
5 to 25 | Cc1c(Cc2ccc(F)c(C(=O)N3CCN(C4CCCCC4)C(=O)C3C)c2)n[nH]c(=O)c1C (stereo not drawn) [Example 35, 6-{3-[(4-Cyclohexyl-2-methyl-3-oxopiperazin-1-yl)carbonyl]-4-fluorobenzyl}-4,5-dimethyl-3-oxo-2,3-dihydropyridazin-1-ium trifluoroacetate] | < 5000
5 to 25 | COC(=O)CN1CCN(C(=O)c2cc(Cc3n[nH]c(=O)c(C)c3C)ccc2F)CC1=O [Example 24, Methyl (4-{5-[(4,5-dimethyl-6-oxo-1,6-dihydropyridazin-3-yl)methyl]-2-fluorobenzoyl}-2-oxopiperazin-1-yl)acetate trifluoroacetate] | –
5 to 25 | Cc1c(Cc2ccc(F)c(C(=O)N3CCN([C@H]4CC[C@H](F)C4)C(=O)C3)c2)n[nH]c(=O)c1C (relative stereo) [Example 212, 6-[4-Fluoro-3-({4-[(trans)-3-fluorocyclopentyl]-3-oxopiperazin-1-yl}carbonyl)benzyl]-4,5-dimethylpyridazin-3(2H)-one] | –
25 to 150 | Cc1c(Cc2ccc(F)c(C(=O)N3CCN(C4CCCCC4)C(=O)C3(C)C)c2)n[nH]c(=O)c1C [Example 37, 3-{3-[(4-Cyclohexyl-2,2-dimethyl-3-oxopiperazin-1-yl)carbonyl]-4-fluorobenzyl}-4,5-dimethyl-6-oxo-1,6-dihydropyridazin-1-ium trifluoroacetate] | –
5 to 25 | Cc1c(Cc2ccc(F)c(C(=O)N3CCN(CCF)C(=O)C3)c2)n[nH]c(=O)c1C [Example 58, 6-(4-Fluoro-3-{[4-(2-fluoroethyl)-3-oxopiperazin-1-yl]carbonyl}benzyl)-4,5-dimethyl-3-oxo-2,3-dihydropyridazin-1-ium trifluoroacetate] | –
25 to 150 | Cc1c(Cc2ccc(F)c(C(=O)N3CCCN(C4CC4)C(=O)C3)c2)n[nH]c(=O)c1C [Example 82, 1-Cyclopropyl-4-{5-[(4,5-dimethyl-6-oxo-1,6-dihydropyridazin-3-yl)methyl]-2-fluorobenzoyl}-1,4-diazepan-2-one] | –
5 to 25 | Cc1c(Cc2ccc(F)c(C(=O)N3CCN(C)C(=O)C3)c2)n[nH]c(=O)c1C [Example 7, 3-{4-Fluoro-3-[(4-methyl-3-oxopiperazin-1-yl)carbonyl]benzyl}-4,5-dimethyl-6-oxo-1,6-dihydropyridazin-1-ium trifluoroacetate] | –
5 to 25 | Cc1c(Cc2ccc(F)c(C(=O)N3CCCN(C4CCCCC4)C(=O)C3)c2)n[nH]c(=O)c1C [Example 34, 6-{3-[(4-Cyclohexyl-3-oxo-1,4-diazepan-1-yl)carbonyl]-4-fluorobenzyl}-4,5-dimethyl-3-oxo-2,3-dihydropyridazin-1-ium trifluoroacetate] | –
